Reference: patent publication US7393865B2, “Sleep inducing compounds and methods relating thereto” (Neurocrine Biosciences, Inc., priority 2004, dated 2008)

Target: T1, human H1 receptor (Homo sapiens, UniProt P35367)
T1 construct: expressed in transfected cells; host or cells: CHO cells (crude membranes)
Test: Human histamine H1 receptor binding assay
Details: competition with 1.5 nM [pyridinyl-5-3H] Pyrilamine, crude membranes of CHO cells transfected with human H1 receptor; Ki from IC50 by Cheng-Prusoff
Protocol: Compounds of the present invention may be evaluated for binding to the histamine H1 receptor by a standard binding assay. […] Pyrilamine (˜30 Ci/mmol, Amersham TRK608) in the presence of varying concentrations of competing ligand. Non-specific binding is determined in the presence of excess (1 μM) doxepin. Bound and free ligand are separated by rapid vacuum filtration using a Packard 96-well cell harvester onto UniFilter GF/C filter plates (PerkinElmer) that has been pretreated with 1% polyethyleneimine. The filter plates are then washed with 600 μl phosphate buffered saline containing 0.01% (v/v) Triton-X100. Bound radioligand is determined by scintillation counting using a TopCount-NXT (Packard). Binding data is analyzed by nonlinear, least-squares curve fitting algorithms using GraphPad Prism (GraphPad Software, Inc. San Diego, Calif.) or ActivityBase (IDBS, Guildford, Surrey, UK).

T1 sequence (P35367 whole entry): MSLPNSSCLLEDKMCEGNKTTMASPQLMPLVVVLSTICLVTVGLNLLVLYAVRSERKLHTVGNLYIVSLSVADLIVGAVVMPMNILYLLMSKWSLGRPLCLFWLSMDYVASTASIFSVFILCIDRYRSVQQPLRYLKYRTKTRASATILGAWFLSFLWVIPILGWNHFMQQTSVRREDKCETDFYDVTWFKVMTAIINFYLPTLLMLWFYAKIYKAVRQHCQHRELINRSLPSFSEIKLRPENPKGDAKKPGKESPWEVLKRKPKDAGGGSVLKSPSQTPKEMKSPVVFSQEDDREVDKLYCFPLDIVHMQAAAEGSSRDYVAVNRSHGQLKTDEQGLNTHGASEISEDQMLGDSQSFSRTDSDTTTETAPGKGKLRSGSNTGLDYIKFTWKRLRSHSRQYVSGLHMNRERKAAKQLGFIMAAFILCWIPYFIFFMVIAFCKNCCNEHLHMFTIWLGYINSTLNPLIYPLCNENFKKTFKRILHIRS

Ki, ≤ 1000 nM:
C[C@H](c1cncs1)c1c(CCN(C)C)sc2ccccc12 [Compound 17-4, Dimethyl-{2-[3-((S)-1-thiazol-5-yl-ethyl)-benzo[b]thiophen-2-yl]-ethyl}-amine]
CC(c1ncccc1F)c1c(CCN(C)C)sc2ccccc12 (centres unmarked) [Compound 18-3, (2-{3-[1-(3-Fluoro-pyridin-2-yl)-ethyl]-benzo[b]thiophen-2-yl}-ethyl)-dimethyl-amine]
C[C@@H](c1ncccc1F)c1c(CCN(C)C)sc2ccccc12 [Compound 18-4, (2-{3-[(R)-1-(3-Fluoro-pyridin-2-yl)-ethyl]-benzo[b]thiophen-2-yl}-ethyl)-dimethyl-amine]
C[C@H](c1ncccc1F)c1c(CCN(C)C)sc2ccccc12 [Compound 18-5, (2-{3-[(S)-1-(3-Fluoro-pyridin-2-yl)-ethyl]-benzo[b]thiophen-2-yl}-ethyl)-dimethyl-amine]
CC(c1cscn1)c1c(CCN2CCCC2)sc2ccccc12 (centres unmarked) [Compound 19-4, 4-{1-[2-(2-Pyrrolidin-1-yl-ethyl)-benzo[b]thiophen-3-yl]-ethyl}-thiazole]
C[C@@H](c1cscn1)c1c(CCN2CCCC2)sc2ccccc12 [Compound 19-5, 4-{(R)-1-[2-(2-Pyrrolidin-1-yl-ethyl)-benzo[b]thiophen-3-yl]-ethyl}-thiazole]
C[C@H](c1cscn1)c1c(CCN2CCCC2)sc2ccccc12 [Compound 19-6, 4-{(S)-1-[2-(2-Pyrrolidin-1-yl-ethyl)-benzo[b]thiophen-3-yl]-ethyl}-thiazole]
CC(c1ccccn1)c1c(CCN2CCCC2)sc2ccccc12 (centres unmarked) [Compound 20-1, 2-{1-[2-(2-Pyrrolidin-1-yl-ethyl)-benzo[b]thiophen-3-yl]-ethyl}-pyridine]
C[C@H](c1ccccn1)c1c(CCN2CCCC2)sc2ccccc12 [Compound 20-2, 2-{(S)-1-[2-(2-Pyrrolidin-1-yl-ethyl)-benzo[b]thiophen-3-yl]-ethyl}-pyridine]
C[C@@H](c1ccccn1)c1c(CCN2CCCC2)sc2ccccc12 [Compound 20-3, 2-{(R)-1-[2-(2-Pyrrolidin-1-yl-ethyl)-benzo[b]thiophen-3-yl]-ethyl}-pyridine]
CC(c1ccccn1)c1c(CCN2CCC(O)C2)sc2ccccc12 (centres unmarked) [Compound 20-6, 1-{2-[3-(1-Pyridin-2-yl-ethyl)-benzo[b]thiophen-2-yl]-ethyl}-pyrrolidin-3-ol]
CC(c1ccccn1)c1c(CCN2CCC2)sc2ccccc12 (centres unmarked) [Compound 20-7, 2-{1-[2-(2-Azetidin-1-yl-ethyl)-benzo[b]thiophen-3-yl]-ethyl}-pyridine]
C[C@@H](c1ccccn1)c1c(CCN2CCC2)sc2ccccc12 [Compound 20-8, 2-{(R)-1-[2-(2-Azetidin-1-yl-ethyl)-benzo[b]thiophen-3-yl]-ethyl}-pyridine]
C[C@H](c1ccccn1)c1c(CCN2CCC2)sc2ccccc12 [Compound 20-9, 2-{(S)-1-[2-(2-Azetidin-1-yl-ethyl)-benzo[b]thiophen-3-yl]-ethyl}-pyridine]
CNCCc1sc2ccccc2c1[C@@H](C)c1ccccn1 [Compound 21-1, Methyl-{2-[3-((R)-1-pyridin-2-yl-ethyl)-benzo[b]thiophen-2-yl]-ethyl}-amine]
CN(C)CCc1sc2ccccc2c1Cc1cccnc1F [Compound 24-2, {2-[3-(2-Fluoro-pyridin-3-ylmethyl)-benzo[b]thiophen-2-yl]-ethyl}-dimethyl-amine]
CC(c1cccnc1Cl)c1c(CCN(C)C)sc2ccccc12 (centres unmarked) [Compound 25-4, (2-{3-[1-(2-Chloro-pyridin-3-yl)-ethyl]-benzo[b]thiophen-2-yl}-ethyl)-dimethyl-amine]
